Assays:
[1] = Stability of magnesium picolinate (hygroscopicity, storage, light); type: physicochemical
Description: Magnesium picolinate compositions of the invention were stable during storage at room temperature.

[2] = Solubility of the isolated product; type: physicochemical
Experimental: Picolinic acid (3.7 g, 30 mmol) and magnesium acetate tetrahydrate (3.2 g, 15 mmol) were suspended in 25 mL of water. The slurry was stirred and heated at reflux overnight and then filtered to isolate 1.7 grams of crystalline MgPic. The remaining filtrate was cooled and evaporated to dryness, providing an additional 2.2 grams of amorphous MgPic with traces of residual acetate. The acetate was removed by washing the solid with ethanol to provide a 96% overall yield of MgPic (crystalline and amorphous). The ^1H-NMR spectrum of the product (FIG. 2) is consistent with the spectrum of a metal picolinate salt. […] The product contained acceptable trace levels of barium and other heavy metals of less than 200 ppm of each element tested. As such, embodiments of a MgPic composition may comprise less than about 200 ppm of barium and/or other heavy metals. In some embodiments, these compositions may comprise less than about 150, less than about 100, less than 50, or less than 20 ppm of barium and/or other heavy metals.
Picolinic acid and magnesium oxide (0.5 equiv.) were added to water, giving a white, stirrable slurry. The slurry was heated to 95-100° C. for 3 hours, and more water was added, tripling the initial amount of water [note: the procedure was based on the preparation of a related magnesium salt using magnesium oxide, in which the initial slurry completely dissolved at 80-90° C. […]

[3] = Serum levels of magnesium and picolinic acid, double-blind clinical study; type: in vivo; conditions: 500 mg magnesium picolinate vs control 916 mg picolinic acid and 90 mg magnesium; at 1, 4, 6 and 8 hours
Experimental: In a double-blind clinical study, 30 subjects are divided into two groups (n=15). The control group receives a supplement containing 916 mg picolinic acid and 90 mg of magnesium. The trial group receives a supplement containing 500 mg of magnesium picolinate (46 mg of magnesium and 454 mg of picolinate), or one-half the total dose of picolinate and magnesium of the control group. Serum levels of picolinic acid (ng/mL) and serum levels of magnesium (ng/mL) are measured at one hour, four hours, six hours, and eight hours. The mean serum magnesium levels for the trial group are between 80-120% of the control group at each time point. The mean serum picolinic acid levels for the trial group are between 80-120% of the control group at each time point.

[4] = Cerebrospinal fluid (CSF) levels of magnesium and picolinic acid, double-blind clinical study; type: in vivo; conditions: 500 mg magnesium picolinate vs control 916 mg picolinic acid and 90 mg magnesium; four and eight hours, spinal tap
Experimental: In a double-blind clinical study, 30 subjects are divided into two groups (n=15). The control group receives a supplement containing 916 mg picolinic acid and 90 mg of magnesium. The trial group receives a supplement containing 500 mg of magnesium picolinate (46 mg of magnesium and 454 mg of picolinate), or one-half the total dose of picolinate and magnesium of the control group. CSF levels of picolinic acid (ng/mL) and serum levels of magnesium (ng/mL) are measured at four hours and eight hours via spinal tap. The mean CSF magnesium levels for the trial group are between 80-120% of the control group at each time point. The mean CSF picolinic acid levels for the trial group are between 80-120% of the control group at each time point. Thus, magnesium picolinate provides 80-120% of the brain penetration of magnesium, and 80-120% of the brain penetration of picolinic acid, relative to twice the dose of magnesium and picolinic acid alone.

[5] = Magnesium and picolinic acid Cmax and Tmax, double-blind clinical study; type: in vivo; conditions: 500 mg magnesium picolinate vs control 916 mg picolinic acid and 90 mg magnesium
Experimental: In a double-blind clinical study, 30 subjects are divided into two groups (n=15). The control group receives a supplement containing 916 mg picolinic acid and 90 mg of magnesium. The trial group receives a supplement containing 500 mg of magnesium picolinate (46 mg of magnesium and 454 mg of picolinate), or one-half the total dose of picolinate and magnesium of the control group. Magnesium and picolinic acid Cmax (ng/mL) and Tmax (minutes) are measured in each subject. […] Thus, magnesium picolinate provides 80-120% of the maximum serum concentration of magnesium and picolinic acid relative to twice the dose of magnesium alone, or relative to twice the dose of picolinic acid alone. The mean magnesium and picolinic acid Tmax for the trial group are between 50-80% of the control group at each time point. Thus, magnesium picolinate delivers the maximum amount of bioavailable magnesium and picolinic acid in 50-80% less time relative to twice the dose of magnesium alone, or relative to twice the dose of picolinic acid alone.

[6] = Magnesium and picolinic acid AUC0→∞, double-blind clinical study; type: in vivo; conditions: 500 mg magnesium picolinate vs control 916 mg picolinic acid and 90 mg magnesium
Experimental: In a double-blind clinical study, 30 subjects are divided into two groups (n=15). The control group receives a supplement containing 916 mg picolinic acid and 90 mg of magnesium. The trial group receives a supplement containing 500 mg of magnesium picolinate (46 mg of magnesium and 454 mg of picolinate), or one-half the total dose of picolinate and magnesium of the control group. Magnesium and picolinic acid AUC0→∞ (ng·h/mL) are measured in each subject. The mean magnesium and picolinic acid AUC0→∞ for the trial group are between 80-120% of the control group at each time point.

[7] = Total magnesium in rat sera, liver and brain by atomic absorption spectroscopy; type: in vivo, Wistar rats; conditions: rats, 500 mg elemental Mg/kg diet, oral, 8 weeks; compared to magnesium oxide and control
Experimental: (§1) Seven male Wistar rats per treatment arm (age: 8 week, weight: 180±20 g) were housed in a controlled environment with a 12:12-h light-dark cycle at 22° C. and were provided with rat chow and water ad libitum. Following a 7-day acclimatization period, animals were randomly be divided into the following groups: • 1. Control (no treatment); • 2. Control+MgO (500 mg elemental Mg/kg diet), • 3. Control+MgPic (500 mg elemental Mg/kg diet), • 4. HFD (fed with high fat diet); • 5. HFD+MgO (500 mg elemental Mg/kg diet), • 6. HFD+MgPic (500 mg elemental Mg/kg diet).
(§2) The MgPic administered was prepared in accordance with the methods of the inventions described herein. All treatments were administered daily as an oral supplement per day for 8 weeks. […] The rats were subjected to several study protocols during the treatment period.
Laboratory Analyses—Following the treatment period, plasma was extracted and used for the determination of glucose, insulin, visceral fat, magnesium, and leptin concentrations, which was performed with an automatic analyzer (Samsung). Brain antioxidant enzyme catalase (CAT) and glutathione peroxidase (GSH-Px) were measured using a commercially available assay kit (Cayman Chemical, Ann Arbor, Mich., USA) according to the manufacturer's instructions. […] Morris Water Maze—The water maze test was performed according to methods known to those of skill in the art. The water maze was conducted in a large circular black pool (160 cm in diameter) containing water (temperature at 24±2° C.) that had been colored with a nontoxic black dye to contrast the rat. A 12-cm-diameter black-colored round platform was placed 1.5 cm below the water surface. All of the rats were placed in the water maze room 1 h before the water maze trial daily. […] The swimming pathway and latency in locating the hidden platform was recorded for each trial. […] All samples were processed to produce clear digests, and the total magnesium in each sample was measured by flame AAS (Perkin Elmer) using established and fully verified methods. […]

male Wistar rats [8] = experiment: Laboratory analyses after 8 weeks of treatment (glucose, insulin, visceral fat, leptin); type: in vivo; conditions: 500 mg elemental Mg/kg diet, oral
Experimental: as §1, §2
Laboratory Analyses—Following the treatment period, plasma was extracted and used for the determination of glucose, insulin, visceral fat, magnesium, and leptin concentrations, which was performed with an automatic analyzer (Samsung). Brain antioxidant enzyme catalase (CAT) and glutathione peroxidase (GSH-Px) were measured using a commercially available assay kit (Cayman Chemical, Ann Arbor, Mich., USA) according to the manufacturer's instructions. […] Morris Water Maze—The water maze test was performed according to methods known to those of skill in the art. The water maze was conducted in a large circular black pool (160 cm in diameter) containing water (temperature at 24±2° C.) that had been colored with a nontoxic black dye to contrast the rat. A 12-cm-diameter black-colored round platform was placed 1.5 cm below the water surface. All of the rats were placed in the water maze room 1 h before the water maze trial daily. The rats were given a maximum time of 60 s to find the hidden platform, and they were allowed to remain on the platform for 30 s. […] The rats were given a daily session of four trials per day for six consecutive days. The swimming pathway and latency in locating the hidden platform was recorded for each trial. On the seventh day, the time taken to reach the quadrant and the number of crossings of the target quadrant was tested with the platform removed. […] It is noted that rats fed a high fat diet experience diminished memory function. […] Atomic Absorption Spectroscopy—Rat sera, liver, brains were removed and the cerebral cortex and hippocampus were dissected for analysis after the treatment period. The tissues were stored at −70° C. until analysis using atomic absorption spectroscopy (AAS). […] All samples were processed to produce clear digests, and the total magnesium in each sample was measured by flame AAS (Perkin Elmer) using established and fully verified methods. […]

male Wistar rats [9] = experiment: Morris water maze; type: in vivo
Experimental: as §1
(§3) The MgPic administered was prepared in accordance with the methods of the inventions described herein. […]
(§4) Laboratory Analyses—Following the treatment period, plasma was extracted and used for the determination of glucose, insulin, visceral fat, magnesium, and leptin concentrations, which was performed with an automatic analyzer (Samsung). Brain antioxidant enzyme catalase (CAT) and glutathione peroxidase (GSH-Px) were measured using a commercially available assay kit (Cayman Chemical, Ann Arbor, Mich., USA) according to the manufacturer's instructions. […] The swimming pathway and latency in locating the hidden platform was recorded for each trial. […] All samples were processed to produce clear digests, and the total magnesium in each sample was measured by flame AAS (Perkin Elmer) using established and fully verified methods. […]

[10] = test system: Brain antioxidant enzyme catalase (CAT); experiment: Brain antioxidant enzyme activity, commercial assay kit; type: in vivo, Wistar rats; conditions: rats, 500 mg elemental Mg/kg diet, 8 weeks; compared to magnesium oxide
Experimental: as §1, §3, §4

[11] = test system: glutathione peroxidase (GSH-Px); experiment: as above; type: in vivo, Wistar rats; conditions: rats, 500 mg elemental Mg/kg diet, 8 weeks; compared to magnesium oxide
Experimental: as §1, §3, §4

[12] = compared to control specimens and those given magnesium oxide

Structure (SMILES): O=C(O)c1ccccn1 [MgPic, magnesium picolinate]
- stability during storage ([1]; 25° C./40% relative humidity): stable
- stability during storage ([1]; 40° C./75% relative humidity): stable
- stability / color change on exposure to light ([1]; listed as MgPic composition): stable on exposure to light
- stability during storage ([1]; room temperature): stable
- solubility in water ([2]; product of Example 2, clear and colorless solution): readily soluble in water
- solubility in ethanol/water ([2]; product of Example 13): soluble in ethanol/water
- mean serum magnesium levels, relative to control group [3]: 80-120%
- mean serum picolinic acid levels, relative to control group [3]: 80-120%
- mean CSF magnesium levels, relative to control group [4]: 80-120%
- mean CSF picolinic acid levels, relative to control group [4]: 80-120%
- mean magnesium Cmax, relative to control group [5]: 80-120%
- mean magnesium Tmax, relative to control group [5]: 50-80%
- mean picolinic acid Cmax, relative to control group [5]: 80-120%
- mean picolinic acid Tmax, relative to control group [5]: 50-80%
- mean magnesium AUC0→∞, relative to control group [6]: 80-120%
- mean picolinic acid AUC0→∞, relative to control group [6]: 80-120%
- magnesium levels in brain (FIG. 4A-4C) [7]: substantially improved magnesium levels
- magnesium levels in liver (FIG. 4A-4C) [7]: substantially improved magnesium levels
- magnesium levels in serum (FIG. 4A-4C) [7]: substantially improved magnesium levels
- glucose (FIG. 4D-4E) (male Wistar rats [8]; [12]): reduced amounts
- insulin (FIG. 4D-4E) (male Wistar rats [8]; [12]): reduced amounts
- leptin secretion (FIG. 4G) (male Wistar rats [8]; compared to magnesium oxide): unexpectedly superior reduction of leptin secretion
- visceral fat (FIG. 4F) (male Wistar rats [8]; compared to magnesium oxide): unexpectedly improved reduction of visceral fat
- memory function: time taken to reach the quadrant with the hidden platform (FIG. 5) (male Wistar rats [9]; rats fed a high fat diet and rats fed the control diet, 500 mg elemental Mg/kg diet): improved memory function
- memory function (FIG. 6) (male Wistar rats [9]; rats fed a high fat diet, compared to rats administered magnesium oxide): improvements
- brain antioxidant enzyme (CAT) activity (FIG. 7A) [10]: superior improvements of increasing brain antioxidant enzyme (CAT) activity
- brain antioxidant enzyme (GSH-Px) activity (FIG. 7B) [11]: superior improvements of increasing brain antioxidant enzyme (GSH-Px) activity

Structure (SMILES): O=C(O)c1ccccn1 [amorphous solid, magnesium picolinate]
- signs of degradation ([1]; after 30 days at 75% relative humidity and 40° C.): no signs of degradation
- signs of degradation ([1]; after 60 days at 40% relative humidity and 25° C.): no signs of degradation
- hygroscopicity ([1]; as measured by weight): not hygroscopic
- stability / color change on exposure to light [1]: did not change color

Source: patent US12016849B2, “Magnesium picolinate compositions and methods of use” (Bonafide Health, LLC, priority 2016, dated 2024)
